Source: patent publication US20160256457A1, “METHODS FOR TREATING OR PREVENTING ACUTE VASCULAR LEAK” (Beth Israel Deaconess Medical Center, Inc., priority 2014, published 2016)
Entries after “also recorded” stand apart in the source; their conditions may differ.

How the values were obtained:
[1] = test system: Primary human dermal microvascular endothelial cells; experiment: ECIS steady-state barrier function of confluent endothelial monolayers; format: cell-based; conditions: for endothelial barrier function (ECIS) compared to other Src inhibitors / endothelial barrier function (ECIS) compared to benchmark agents: bosutinib 300 nM; for endothelial barrier function (ECIS) compared to other Src inhibitors: dasatinib 300 nM, PP2 10 μM, monitored ~22 hours, FIG. 7; for endothelial barrier function (ECIS) compared to benchmark agents: HGF 100 ng/ml (1200 nM), APC 500 nM, monitored ~18 hours, FIG. 6
Description: (§1) Primary human dermal microvascular endothelial cells were grown to confluence. […] Data are mean±SEM of three independent experiments.
as §1, §1

[2] = test system: Primary bovine aortic endothelial cells; experiment: ECIS barrier function, dose response over 72 hours; format: cell-based; conditions: FIG. 2; for vascular barrier function (ECIS resistance, normalized to 1): single doses, 10 nM to 3 μM, monitored 72 hours
Description: Primary bovine aortic endothelial cells were grown to confluence. Steady state barrier function was monitored by ECIS for 24 hours and normalized to a value of 1. […] Data are mean±SEM of three independent experiments.

[3] = test system: Primary human dermal microvascular endothelial monolayers; experiment: Confocal imaging of actin and VE-cadherin junctions during permeability challenge; format: cell-based
From the text: Samples were fixed and stained for actin (i) and the junctional marker VE-cadherin (ii) before imaging by confocal microscopy. To assess quality of endothelial junctions (see B), image thresholding was applied to the VE-cadherin images to delineate the junctions (line traces in [iii]). […] Scale bar represents 10 μm.
Primary human dermal microvascular endothelial monolayers were challenged with either Thrombin (Thr) or Histamine (His) as described above for FIG. 5A. Quantitative analysis of (i) total junctional area per field and (ii) VE-cadherin intensity within junctions were performed to assess maintenance of junctional integrity. […] Data are mean±SEM of three independent experiments.

[4] = test system: Primary human dermal microvascular endothelial cells; experiment: Thrombin- and histamine-induced vascular permeability assays (ECIS), pretreatment; format: cell-based; conditions: for protection to histamine challenge / protection to thrombin challenge: 300 nM for 30 min; for protection to histamine challenge: then histamine 300 μM, FIG. 3B; for protection to thrombin challenge: then thrombin 2.5 U/ml, FIG. 3A
Description: For all assays, primary human dermal microvascular endothelial cells were grown to confluence. Steady state barrier function was monitored by ECIS and normalized to a value of 1. […] Data are mean±SEM of three independent experiments.

FIP rats = experiment: Polymicrobial sepsis model (feces-induced peritonitis; FIP), intravital microscopy of the hindlimb; format: in vivo, rat
Description: Disease onset was initiated by tail vein injection of a solution of saline and rat feces. […] Microvascular parameters were measured through intravital microscopy of the hindlimb at baseline, 3 hr and 5 hr post FIP onset. […] Data are representative of two separate pilot experiments.

Src = Src (Homo sapiens, UniProt P12931); conditions: cited from earlier work
[5] = imaging-based analysis, FIGS. 5A and 5B

Chain of Src (P12931 whole entry, species assumed): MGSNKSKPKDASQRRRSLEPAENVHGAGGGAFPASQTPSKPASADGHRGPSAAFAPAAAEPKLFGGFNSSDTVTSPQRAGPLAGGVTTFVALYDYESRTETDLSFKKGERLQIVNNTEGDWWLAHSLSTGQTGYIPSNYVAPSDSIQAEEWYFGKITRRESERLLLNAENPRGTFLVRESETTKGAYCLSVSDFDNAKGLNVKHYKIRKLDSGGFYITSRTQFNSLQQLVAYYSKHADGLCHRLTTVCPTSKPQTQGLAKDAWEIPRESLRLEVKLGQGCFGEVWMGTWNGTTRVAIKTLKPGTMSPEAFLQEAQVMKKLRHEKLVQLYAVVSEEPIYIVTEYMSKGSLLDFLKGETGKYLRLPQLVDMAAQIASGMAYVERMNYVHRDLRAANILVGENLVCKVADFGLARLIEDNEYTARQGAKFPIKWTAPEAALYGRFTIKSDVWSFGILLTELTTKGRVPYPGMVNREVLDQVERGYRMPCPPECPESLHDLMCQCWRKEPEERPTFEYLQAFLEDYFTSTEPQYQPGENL

**Q.** With CC(C)(C)n1nc(-c2ccc(Cl)cc2)c2c(N)ncnc21 [PP2, 3-(4-chlorophenyl)-1-(1,1-dimethylethyl)-1H-pyr-azolo[3,4-d]pyrimidin-4-amine] as the compound, how does the “endothelial barrier function (ECIS) compared to other Src inhibitors” value [1] read?
**A.** Its value is “greatly reduced, endothelial barrier function; also recorded: sustained decreases in barrier function”.

**Q.** With COc1cc(Nc2c(C#N)cnc3cc(OCCCN4CCN(C)CC4)c(OC)cc23)c(Cl)cc1Cl [bosutinib] as the compound, how does the duration of sustained barrier enhancement ([2]; longest experiments conducted thus far) read?
**A.** The duration of sustained barrier enhancement was greater than 72 h.

**Q.** What about the “vascular barrier function (ECIS resistance, normalized to 1)” value [2] of the same compound?
**A.** Its value is “sustained, dose-dependent increase in vascular barrier function”.

**Q.** What about the “vascular barrier function (ECIS resistance, normalized to 1)” value ([2]; listed as Bosutinib) of the same compound?
**A.** Its value is “sustained barrier enhancement effects in a dose-dependent manner”.

**Q.** What about the “endothelial barrier function (ECIS) compared to benchmark agents” value [1] of the same compound?
**A.** Its value is “exhibits unprecedented efficacy and duration of action”.

**Q.** What about the “endothelial barrier function (ECIS) compared to benchmark agents” value ([1]; listed as Bosutinib) of the same compound?
**A.** Its value is “significant and sustained increase in barrier function”.

**Q.** And the “endothelial barrier function (ECIS) compared to other Src inhibitors” value [1]?
**A.** The value was “sustained increase in barrier function”.

**Q.** What about the “vascular barrier function (ECIS resistance, normalized to 1)” value ([1]; single 300 nM dose, monitored 3 hours, FIG. 1) of the same compound?
**A.** The value was “profoundly enhanced base-line barrier properties; also recorded: increases in resistance”.

**Q.** And the “endothelial junction continuity and gap formation” value ([3]; 300 nM 30 min pretreatment, thrombin 2.5 U/ml or histamine 300 μM for 30 min, FIG. 5A)?
**A.** The value was “maintains continuous junctions and cortical actin during challenge”.

**Q.** And the “VE-cadherin and cortical actin at the intercellular junctions” value [3, 5]?
**A.** The value was “increase in VE-cadherin and cortical actin at the intercellular junctions”.

**Q.** And the “actin stress fibers in endothelial cells” value [3, 5]?
**A.** The value was “decrease in actin stress fibers”.

**Q.** And the “total junctional area per field” value ([3]; thrombin or histamine challenge, FIG. 5B)?
**A.** The value was “significantly increased junctional area compared to vehicle controls”.

**Q.** What about the “protection to histamine challenge” value [4] of the same compound?
**A.** Its value is 100%.

**Q.** And the “protection to thrombin challenge” value [4]?
**A.** The value was roughly 50%.

**Q.** What about the “protection against pro-leak stimuli by pretreatment” value ([4]; thrombin, histamine, Ang-II and TNF-α) of the same compound?
**A.** Its value is “conferred profound protection against a range of pro-leak stimuli”.

**Q.** And the percent oxygen saturation (FIP rats; 10 mg/kg loading dose at 30 min, 5 mg/kg every two hours, tail vein, FIG. 8C)?
**A.** Its percent oxygen saturation is “effectively preserved; also recorded: similarly maintained in bosutinib-treated, but not control, FIP rats”.

**Q.** What about the capillary diameter (FIP rats; 10 mg/kg loading dose at 30 min, 5 mg/kg every two hours, tail vein, FIG. 8D) of the same compound?
**A.** Its capillary diameter is “unaltered; also recorded: unchanged in both control and bosutinib rats”.

**Q.** And the “red blood cell (RBC) velocity” value (FIP rats; 10 mg/kg loading dose at 30 min, 5 mg/kg every two hours, tail vein, baseline, 3 hr and 5 hr post FIP onset, FIG. 8A)?
**A.** The value was “rapidly decline following sepsis onset in control rats, but not in bosutinib-treated rats”.

**Q.** And the RBC supply rate (FIP rats; 10 mg/kg loading dose at 30 min, 5 mg/kg every two hours, tail vein, baseline, 3 hr and 5 hr post FIP onset, FIG. 8B)?
**A.** The RBC supply rate was “rapidly decline following sepsis onset in control rats, but not in bosutinib-treated rats”.

**Q.** What about the microvascular flow (FIP rats; pilot studies, septic rats, FIGS. 8A and 8B) of the same compound?
**A.** Its microvascular flow is “effectively preserved”.

**Q.** And the “efficacy against Src kinase” value (Src)?
**A.** Its value is “low nanomolar range”.

**Q.** With Cc1ccc(NC(=O)c2ccc(CN3CCN(C)CC3)cc2)cc1Nc1nccc(-c2cccnc2)n1 [imatinib, Imatinib] as the compound, how does the “protection to histamine challenge” value [4] read?
**A.** Its value is 5-10%.

**Q.** And the “protection to thrombin challenge” value [4]?
**A.** Its value is 5-10%.

**Q.** For activated protein C [APC], which “endothelial barrier function (ECIS) compared to benchmark agents” value [1] is on record?
**A.** The value was “increase in barrier function that was relatively minor in both magnitude and duration”.

**Q.** For hepatocyte growth factor [HGF], which “endothelial barrier function (ECIS) compared to benchmark agents” value [1] is on record?
**A.** The value was “initially promoted a similar increase, which was rapidly reversed after ˜20 minutes leading ultimately to a sustained decrease in barrier function”.
